Laboratory results from patent US6875451B2, “Compositions and methods for the treatment of primary and metastatic neoplastic diseases using arsenic compounds” (PolaRx Biopharmaceuticals Inc., priority 1997, dated 2005).

Columns and labels:
Format in all cases: cell-based
SF-539 [1] = test: SRB growth assay, 6 days exposure, CNS cancer; details: SF-539, 6 days
Description: (§1) Arsenic trioxide (1 mg/ml, 10 mg/ampoule, manufactured by Taylor Pharmaceuticals, Decatur, Ill.) was tested at five concentrations each at 10-fold dilutions, i.e., 10^−5, 10^−6, 10^−7, 10^−8 and 10^−9 μg/ml.
(§2) The in vitro tests were performed by incubating the test cells in the presence of the indicated concentration of arsenic trioxide under standard culture conditions for a designated period of time, which is followed by a sulforhodamine B (SRB) protein assay to estimate cell viability or growth. The cell lines are organized into subpanels according to the origin of the cell lines, e.g., leukemia, breast cancer, etc. A description of the cell lines and method of testing is described in Monk et al. (1997, Anticancer Drug Des. 12:533-41) and Weinstein et al., (1997, Science 275:343-9), which are incorporated herein in their entirety.
(§3) The measurement of an effect is expressed in Percentage Growth (PG). The measured effect of the compound on a cell line is calculated according to one or the other of the following two expressions: If (Mean ODtest−Mean ODzero)≧0. then PG=100×(Mean ODtest−Mean ODzero)/(Mean ODctrl−Mean ODzero) If (Mean ODtest−Mean ODzero)<0. then PG=100×(Mean ODtest−Mean ODzero)/(Mean ODzero where: • Mean ODzero=the average of optical density measurements of SRB-derived color just before exposure of cells to the test compounds; • Mean ODtest=the average of optical density measurements of SRB-derived color after exposure of cells to the test compound for a designated period of time; and • Mean ODctrl=the average of optical density measurements of SRB-derived color after with no exposure of cells to the test compound for a designated period of time
(§4) The first two columns describe the subpanel (e.g., leukemia) and cell line (e.g., CCRF-CEM) involved. The next two columns list the Mean ODzero and Mean ODctrl; the next five columns list the Mean ODtest for each of five different concentrations. Each concentration is expressed as the log10 (molar or μg/ml). The next five columns list the calculated PGs for each concentration. The response parameters GI50, TGI and LC50 are interpolated values representing the concentrations at which the PG is +50, 0, and −50, respectively. Sometimes these response parameters cannot be obtained by interpolation. If, for instance, all of the PGs in a given row exceed +50, then none of the three parameters can be obtained by interpolation. In such a case, the value given for each response parameter is the highest concentration tested and is preceded by a “>” sign. This practice is extended similarly to the other possible situations where a response parameter cannot be obtained by interpolation.
(§5) In the first set, the cells from 56 different cancer cell lines were exposed to five concentrations of arsenic trioxide continuously for two days prior to performing the SRB assay. In the second set, the cells from 50 different cell lines (a subset of the first 56 cell lines, plus the renal cancer cell line 786-0) were exposed continuously for six days prior to the SRB assay.

NCI-H226 = test: SRB growth assay, 6 days exposure, non-small cell lung cancer; details: NCI-H226, 6 days
Description: as §1, §2, §3, §4, §5

HOP-62 = test: as above; details: HOP-62, 6 days
Description: as §1, §2, §3, §4, §5

U251 = test: SRB growth assay, 2 days exposure, CNS cancer
Description: as §1, §2, §3, §4, §5

SNB-75 = test: SRB growth assay, 2 days exposure, CNS cancer
Description: as §1, §2, §3, §4, §5

SF-295 = test: SRB growth assay, 2 days exposure, CNS cancer
Description: as §1, §2, §3, §4, §5

SNB-19 = test: SRB growth assay, 2 days exposure, CNS cancer
Description: as §1, §2, §3, §4, §5

SF-539 [2] = test: SRB growth assay, 2 days exposure, CNS cancer
Description: as §1, §2, §3, §4, §5

SF-268 = test: SRB growth assay, 2 days exposure, CNS cancer
Description: as §1, §2, §3, §4, §5

DU-145 = test: SRB growth assay, 2 days exposure, prostate cancer
Description: as §1, §2, §3, §4, §5

PC-3 = test: SRB growth assay, 2 days exposure, prostate cancer
Description: as §1, §2, §3, §4, §5

Substance: arsenic trioxide
- TGI (SF-539 [1]): 3.29E−06
- Mean Optical Densities (SF-539 [1]; Log 10 Concentration −4.9): 0.017
- Percent Growth (SF-539 [1]; Log 10 Concentration −4.9): −59%
- Mean Optical Densities (SF-539 [1]; Log 10 Concentration −5.9): 0.691
- Percent Growth (SF-539 [1]; Log 10 Concentration −5.9): 42%
- Mean Optical Densities (SF-539 [1]; Log 10 Concentration −6.9): 1.545
- Percent Growth (SF-539 [1]; Log 10 Concentration −6.9): 97%
- Mean Optical Densities (SF-539 [1]; Log 10 Concentration −7.9): 1.403
- Percent Growth (SF-539 [1]; Log 10 Concentration −7.9): 87%
- Mean Optical Densities (SF-539 [1]; Log 10 Concentration −8.9): 1.727
- Percent Growth (SF-539 [1]; Log 10 Concentration −8.9): 108%
- Mean Optical Densities (NCI-H226; Log 10 Concentration −4.9): 0.164
- Percent Growth (NCI-H226; Log 10 Concentration −4.9): 17%
- Mean Optical Densities (NCI-H226; Log 10 Concentration −5.9): 0.348
- Percent Growth (NCI-H226; Log 10 Concentration −5.9): 63%
- Mean Optical Densities (NCI-H226; Log 10 Concentration −6.9): 0.489
- Percent Growth (NCI-H226; Log 10 Concentration −6.9): 98%
- Mean Optical Densities (NCI-H226; Log 10 Concentration −7.9): 0.458
- Percent Growth (NCI-H226; Log 10 Concentration −7.9): 90%
- Mean Optical Densities (NCI-H226; Log 10 Concentration −8.9): 0.504
- Percent Growth (NCI-H226; Log 10 Concentration −8.9): 101%
- CC50 (NCI-H226; read-out: LC50 (the source's name)): > 12.6 µM
- Mean Optical Densities (HOP-62; Log 10 Concentration −4.9): 0.014
- Percent Growth (HOP-62; Log 10 Concentration −4.9): −77%
- Mean Optical Densities (HOP-62; Log 10 Concentration −5.9): 0.451
- Percent Growth (HOP-62; Log 10 Concentration −5.9): 40%
- Mean Optical Densities (HOP-62; Log 10 Concentration −6.9): 1.019
- Percent Growth (HOP-62; Log 10 Concentration −6.9): 99%
- Mean Optical Densities (HOP-62; Log 10 Concentration −7.9): 0.997
- Percent Growth (HOP-62; Log 10 Concentration −7.9): 97%
- Mean Optical Densities (HOP-62; Log 10 Concentration −8.9): 1.076
- Percent Growth (HOP-62; Log 10 Concentration −8.9): 105%
- TGI (U251): 0.00437 ng/mL
- Percent Growth (U251; log10 conc −4.9): −68%
- Percent Growth (U251; log10 conc −5.9): 80%
- Percent Growth (U251; log10 conc −6.9): 101%
- Percent Growth (U251; log10 conc −7.9): 99%
- Percent Growth (U251; log10 conc −8.9): 98%
- TGI (SNB-75): 0.00698 ng/mL
- Percent Growth (SNB-75; log10 conc −4.9): −17%
- Percent Growth (SNB-75; log10 conc −5.9): 37%
- Percent Growth (SNB-75; log10 conc −6.9): 115%
- Percent Growth (SNB-75; log10 conc −7.9): 100%
- Percent Growth (SNB-75; log10 conc −8.9): 77%
- TGI (SF-295): >0.0126 ng/mL
- Percent Growth (SF-295; log10 conc −4.9): 51%
- Percent Growth (SF-295; log10 conc −5.9): 91%
- Percent Growth (SF-295; log10 conc −6.9): 91%
- Percent Growth (SF-295; log10 conc −7.9): 96%
- Percent Growth (SF-295; log10 conc −8.9): 93%
- TGI (SNB-19): >0.0126 ng/mL
- Percent Growth (SNB-19; log10 conc −4.9): 36%
- Percent Growth (SNB-19; log10 conc −5.9): 97%
- Percent Growth (SNB-19; log10 conc −6.9): 98%
- Percent Growth (SNB-19; log10 conc −7.9): 97%
- Percent Growth (SNB-19; log10 conc −8.9): 93%
- TGI (SF-539 [2]): 0.00885 ng/mL
- Percent Growth (SF-539 [2]; log10 conc −4.9): −17%
- Percent Growth (SF-539 [2]; log10 conc −5.9): 92%
- Percent Growth (SF-539 [2]; log10 conc −6.9): 113%
- Percent Growth (SF-539 [2]; log10 conc −7.9): 117%
- Percent Growth (SF-539 [2]; log10 conc −8.9): 109%
- TGI (SF-268): >0.0126 ng/mL
- Percent Growth (SF-268; log10 conc −4.9): 23%
- Percent Growth (SF-268; log10 conc −5.9): 100%
- Percent Growth (SF-268; log10 conc −6.9): 108%
- Percent Growth (SF-268; log10 conc −7.9): 94%
- Percent Growth (SF-268; log10 conc −8.9): 110%
- TGI (DU-145): >0.0126 ng/mL
- Percent Growth (DU-145; log10 conc −4.9): 64%
- Percent Growth (DU-145; log10 conc −5.9): 96%
- Percent Growth (DU-145; log10 conc −6.9): 106%
- Percent Growth (DU-145; log10 conc −7.9): 131%
- Percent Growth (DU-145; log10 conc −8.9): 91%
- TGI (PC-3): 0.011 ng/mL
- Percent Growth (PC-3; log10 conc −4.9): −4%
- Percent Growth (PC-3; log10 conc −5.9): 67%
- Percent Growth (PC-3; log10 conc −6.9): 88%
- Percent Growth (PC-3; log10 conc −7.9): 91%
- Percent Growth (PC-3; log10 conc −8.9): 103%
